Values after ≈ are worked out from the molar mass of the structure shown. Structures can show the parent of a compound that is named as a salt. Where two headings read alike, the source gives them in different places.
Experiments:
[1] = test system: Strep. pyogenes EES 61; assay: Second in vitro MIC test, Brain Heart Infusion Broth (BHIB); format: cell-based
[2] = test system: E. Coli Juhl; assay: Acute mouse protection test; format: in vivo; conditions: mice infected i.p. with E. Coli JUHL, observed 7 days; for SC (ED50): SC dosing at 1 and 5 hours post-infection; for Oral (ED50): oral dosing at 1 and 5 hours post-infection
[3] = test system: P. Aeruginosa A5007; assay: Acute mouse protection test; format: in vivo; conditions: mice infected i.p. with P. Aeruginosa A5007, observed 7 days; for SC (ED50): SC dosing at 1 and 5 hours post-infection; for Oral (ED50): oral dosing at 1 and 5 hours post-infection
[4] = test system: Stap. Aureus NCTC 10649; assay: Acute mouse protection test; format: in vivo; conditions: mice infected i.p. with Stap. Aureus NCTC 10649, observed 7 days; for SC (ED50): SC dosing at 1 and 5 hours post-infection; for Oral (ED50): oral dosing at 1 and 5 hours post-infection
[5] = Conversion of prodrug to parent drug in whole blood at 37° C.; format: in vitro ADME, Dog
Description: (§1) An aqueous solution of prodrug (Z) is spiked into fresh whole blood containing sodium heparin as an anticoagulant. The sample is mixed gently by inversion and placed in a 37° waterbath. At selected time intervals an 0.5 ml aliquot of blood is removed and placed in a chilled 1.5 ml centrifuge tube (ice temperature). Samples are centrifuges at 13,000 rpm for two minutes to separate plasma. An 0.2 ml aliquot of the plasma sample is combined with 0.2 ml internal standard (7-(4-amino-2-methyl-1-pyrrolidinyl)-1-(2,4-difluorophenyl)-6-fluoro-1,4-d ihydro-4-oxo-1,8-naphthyridine-3-carboxylic acid in 0.2M sodium phosphate pH 7.2 buffer) and 6 mls CH2 Cl2 :EtoH (9:1 by volume). Samples are capped and shaken gently for 10 minutes. Samples are centrifuges at 2500 rpm for 10 minutes (4° C.). The aqueous layer is aspirated to waste and the organic layer is transferred to a conical centrifuge tube and evaporated to dryness with a stream of dry air and low heat ([…]). Samples are reconstituted with 0.2 ml mobile phase followed by vortexing. Samples are centrifuges at 2500 rpm for 10 minutes to separate precipitate. The supernatant is transferred to a WISP vial with plastic insert for HPLC analysis.

[6] = as above; format: in vitro ADME, Rat; conditions: conversion to parent drug in rat whole blood at 37° C.; seconds
Description: as §1

[7] = as above; format: in vitro ADME, Human; conditions: conversion to parent drug in human whole blood at 37° C.; minutes
Description: as §1

[8] = test system: Stap. Aureus CMX 553; assay: Second in vitro MIC test, Brain Heart Infusion Broth (BHIB); format: cell-based
[9] = test system: E. Coli Juhl; assay: as above; format: cell-based
[10] = test system: Ps. Aeruginosa A5007; assay: as above; format: cell-based
[11] = test system: MICROCOCCUS LUTEUS ATCC 9341; assay: In vitro MIC, agar dilution (BHIA); format: cell-based; conditions: ATCC9341, read-out: MIC
[12] = test system: MICROCOCCUS LUTEUS ATCC 4698; assay: In vitro MIC, agar dilution (BHIA); format: cell-based; conditions: ATCC4698, read-out: MIC
[13] = test system: PROVIDENCIA STUARTII CMX 640; assay: In vitro MIC, agar dilution (BHIA); format: cell-based; conditions: read-out: MIC
[14] = test system: PSEUDOMONAS AERUGINOSA A5007; assay: In vitro MIC, agar dilution (BHIA); format: cell-based; conditions: read-out: MIC
[15] = test system: PSEUDOMONAS AERUGINOSA K799/WT; assay: In vitro MIC, agar dilution (BHIA); format: cell-based; conditions: read-out: MIC
[16] = test system: PSEUDOMONAS CEPACIA 296I; assay: In vitro MIC, agar dilution (BHIA); format: cell-based; conditions: Burkholderia cepacia, read-out: MIC

SMILES	MIC [1] [µg/mL]	SC (ED50) [2] [mg/kg/day]	Oral (ED50) [2] [mg/kg/day]	SC (ED50) [3] [mg/kg/day]	Oral (ED50) [3] [mg/kg/day]	SC (ED50) [4] [mg/kg/day]	Oral (ED50) [4] [mg/kg/day]	MIC [8] [µg/mL]	MIC [9] [µg/mL]	MIC [10] [µg/mL]	Half Life Dog [5]	Solubility pH 7.4 [mg/ml]	other results
CCC[C@H](NC(=O)[C@@H](N)CCC)C(=O)NC1CCN(c2nc3c(cc2F)c(=O)c(C(=O)O)cn3-c2ccc(F)cc2F)C1 (stereo partly drawn) [Example 3b, 7-(3-L-Norvaline-L-Norvalineamino-1-pyrrolidinyl)-1-(2,4-difluorophenyl)-6-fluoro-1,4-dihydro-4-oxo-1,8-naphthyridine-3-carboxylic acid hydrochloride]	12.5	0.5	4.0	6.2	9.1	0.5	1.8						Half Life Dog ([5]; conversion to parent drug in dog whole blood at 37° C., seconds): 86.5 s; Half Life Rat [6]: 0.858 min; Half Life Human [7]: 2.1 m
CC(N)C(=O)NC1CCN(c2nc3c(cc2F)c(=O)c(C(=O)O)cn3-c2ccc(F)cc2F)C1 (stereo not drawn) [Example 17]		0.4	2.0	5.7	12.5	0.7	1.7	2.0 (≈ 4.21 µM)	0.5 (≈ 1.05 µM)	16 (≈ 33.7 µM)	97.0 s	0.12	
O=C(O)c1cn(-c2ccc(F)cc2F)c2nc(N3CCC(NC(=O)C4CCCN4)C3)c(F)cc2c1=O (stereo not drawn) [Example 28]	1.56 (≈ 3.11 µM)			3.1	51.3	0.5	3.2	1.56 (≈ 3.11 µM)	1.56 (≈ 3.11 µM)	12.5 (≈ 24.9 µM)	41 m		
CCC[C@H](NC(=O)CNC(=O)CN)C(=O)NC1CCN(c2nc3c(cc2F)c(=O)c(C(=O)O)cn3-c2ccc(F)cc2F)C1 (stereo partly drawn) [Example 30]	100 (≈ 162 µM)			4.8	3.3	0.7	2.2	25 (≈ 40.5 µM)	25 (≈ 40.5 µM)	> 100			
CC(C)CC(N)C(=O)NC1CCN(c2nc3c(cc2F)c(=O)c(C(=O)O)cn3-c2ccc(F)cc2F)C1 (stereo not drawn) [Example 21]	6.2 (≈ 12 µM)			3.9	12.5	0.5	2.4	1.56 (≈ 3.01 µM)	1.56 (≈ 3.01 µM)	25 (≈ 48.3 µM)	55.8 s	0.14	
NC1CCN(c2nc3c(cc2F)c(=O)c(C(=O)O)cn3-c2ccc(F)cc2F)C1 (stereo not drawn) [tosufloxacin, 7-(3-amino-1-pyrrolidinyl)-6-fluoro,1-(2,4-difluorophenyl)-1,4-dihydro-4-o xo-1,8-naphthyridine 3-carboxylic acid, reference compound]		0.2	0.9	> 25	6.2	0.6	1.5						MIC [11]: 1.56 µg/mL (≈ 3.86 µM); MIC [12]: 0.78 µg/mL (≈ 1.93 µM); MIC [13]: 1.56 µg/mL (≈ 3.86 µM); MIC [14]: 0.78 µg/mL (≈ 1.93 µM); MIC [15]: 0.78 µg/mL (≈ 1.93 µM); MIC [16]: 3.1 µg/mL (≈ 7.67 µM)
NC(Cc1ccc(O)cc1)C(=O)NC1CCN(c2nc3c(cc2F)c(=O)c(C(=O)O)cn3-c2ccc(F)cc2F)C1 (stereo not drawn) [Example 13]	12.5 (≈ 22 µM)			9.1	15.1	0.4	1.7	12.5 (≈ 22 µM)	12.5 (≈ 22 µM)	50 (≈ 88.1 µM)		0.06	
Cl.Cl.NCCCC[C@H](N)C(=O)NC1CCN(c2nc3c(cc2F)c(=O)c(C(=O)O)cn3-c2ccc(F)cc2F)C1 (stereo partly drawn) [Example 46, 7-(3-Lys-amino-1-pyrrolidinyl)-1-(2,4-difluorophenyl)-6-fluoro-1,4-dihydro-4-oxo-1,8-naphthyridine-3-carboxylic acid dihydrochloride]	100			4.5	12.5	0.7	3.4	100		> 100	46 m		
CSCCC(N)C(=O)NC1CCN(c2nc3c(cc2F)c(=O)c(C(=O)O)cn3-c2ccc(F)cc2F)C1 (stereo not drawn) [Example 23]	3.12 (≈ 5.83 µM)			3.1	11.5	0.5	1.5	3.12 (≈ 5.83 µM)	3.12 (≈ 5.83 µM)	5.0 (≈ 9.34 µM)	99.1 s		
CC(N)C(=O)NC(Cc1ccccc1)C(=O)NC1CCN(c2nc3c(cc2F)c(=O)c(C(=O)O)cn3-c2ccc(F)cc2F)C1 (stereo not drawn) [Example 11]				9.7	65.3	0.7	2.0	16.0 (≈ 25.7 µM)	16 (≈ 25.7 µM)	128 (≈ 206 µM)	10.4 m	0.59	
NCC(=O)NC1CCN(c2nc3c(cc2F)c(=O)c(C(=O)O)cn3-c2ccc(F)cc2F)C1 (stereo not drawn) [Example 7]	0.78 (≈ 1.69 µM)	0.3	5.0	4.2	11.4	0.9	2.4	1.56 (≈ 3.38 µM)	0.78 (≈ 1.69 µM)	12.5 (≈ 27.1 µM)			
